# Values of other authors, collected in patent publication US20200221696A1, “ACTIVE […] FORMULATION FOR I[…] AND OBTAINED PAINT” (priority 2018, published 2020).
# “Also recorded” adds a separate entry of the source. Like-named read-outs stand apart in the source and are kept apart here.
# Details: aqueous medium; for Decomposition time (Mean life): stability in words: pH
SMILES,Decomposition time (Mean life): stability in words,Decomposition time (Mean life) (pH 9),other results
CCOP(=S)(OCC)Oc1nc(Cl)c(Cl)cc1Cl [Chlorpyrifos],Stable in neutral and slightly acid,,Decomposition time (Mean life) (pH 10): 7 days
CC1(C)C(C=C(Cl)Cl)C1C(=O)OC(C#N)c1cccc(Oc2ccccc2)c1 (centres unmarked) [Cypermethrin],,7 days,
C=CCC1=C(C)C(OC(=O)C2C(C=C(C)C)C2(C)C)CC1=O [D-allethrin],Stable at pH 5 after 31 days,(4.3 days),Decomposition time (Mean life) (pH 7): 500 days
CC1(C)[C@H](C(=O)O[C@H](C#N)c2cccc(Oc3ccccc3)c2)[C@@H]1C=C(Br)Br [Deltamethrin],more stable in medium acid solutions,,Decomposition time (Mean life) (pH 7): 0.33 days
CCOP(=S)(OCC)Oc1cc(C)nc(C(C)C)n1 [Diazinon],,136 days,Decomposition time (Mean life) (pH 5): 31 days; Decomposition time (Mean life) (pH 7.5): 185 days
O=C(NC(=O)c1c(F)cccc1F)Nc1ccc(Cl)cc1 [Diflubenzuron],Stable in a pH range from 5 to 7; also recorded: Hydrolyzed at pH 9,,
CCOC(=O)CC(SP(=S)(OC)OC)C(=O)OCC (centres unmarked) [Malathion],Quickly hydrolyzed at pH over 7. The optimal pH,,
CC1(C)C(C=C(Cl)Cl)C1C(=O)OCc1cccc(Oc2ccccc2)c1 (centres unmarked) [Permethrin],Stable at pH between 5 and 6.,,
CCN(CC)c1nc(C)cc(OP(=S)(OC)OC)n1 [Pirimiphos-methyl],,,Decomposition time (Mean life) (pH 5): 7 days; Decomposition time (Mean life) (pH 8): 5 days
CC(COc1ccc(Oc2ccccc2)cc1)Oc1ccccn1 (centres unmarked) [Pyriproxifen],Stable in pH between 4 and 9.,,
